Molecules are shown by their SMILES.

The assay addresses T1, enzyme ACAT-1 (Homo sapiens, UniProt P35610).
T1 construct: endogenous in cells; host or cells: HepG2
T1 sequence (P35610 1-550): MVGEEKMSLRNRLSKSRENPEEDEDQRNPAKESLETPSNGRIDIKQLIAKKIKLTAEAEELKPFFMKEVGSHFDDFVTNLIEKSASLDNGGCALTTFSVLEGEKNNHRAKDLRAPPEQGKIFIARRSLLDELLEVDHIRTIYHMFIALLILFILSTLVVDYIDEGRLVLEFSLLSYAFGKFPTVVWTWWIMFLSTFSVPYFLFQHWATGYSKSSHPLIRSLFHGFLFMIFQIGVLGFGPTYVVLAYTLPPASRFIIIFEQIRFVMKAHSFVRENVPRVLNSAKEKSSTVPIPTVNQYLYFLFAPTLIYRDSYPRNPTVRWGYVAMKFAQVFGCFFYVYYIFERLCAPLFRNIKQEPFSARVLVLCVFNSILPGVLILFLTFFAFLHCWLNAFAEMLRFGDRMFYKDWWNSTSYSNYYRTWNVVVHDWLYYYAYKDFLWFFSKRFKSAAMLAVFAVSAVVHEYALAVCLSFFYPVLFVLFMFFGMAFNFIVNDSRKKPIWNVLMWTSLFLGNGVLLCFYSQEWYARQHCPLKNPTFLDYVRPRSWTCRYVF
Nature of the assay: primary enzymatic test HepG2: NBD-cholesterol fluorescence test of inhibitory action on ACAT-1 (SOAT-1). To be noted: HepG2 cells, NBD-cholesterol 1 μg/ml, incubation 6 h at 37° C., fluorescence excitation 490 nm, emission 540 nm. The format is cell-based. How it is done:
The compounds (I) according to the invention, as well as their pharmaceutically acceptable salts, solvates and/or hydrates, have inhibitory properties on the enzyme SOAT-1. This inhibitory activity on the enzyme SOAT-1 is measured according to a primary enzymatic test HepG2, as described in Example 16.
The compounds of formula (I) according to the invention were subjected to a test allowing their inhibitory action to be evaluated with respect to the enzyme ACAT-1 inspired by the following publication: “Identification of ACAT1- and ACAT2-specific inhibitors using a novel, cell-based fluorescence assay: individual ACAT uniqueness”, J. Lipid. Res (2004) vol 45, pages 378-386. The principle of this test is based on the employment of NBD-cholesterol, an analogue of cholesterol whose fluorescence depends on its environment. When this is present in a polar environment, it is weakly fluorescent although in a nonpolar environment it is strongly fluorescent. Free NBD-cholesterol locates itself in the cell membranes and is weakly fluorescent in this polar environment. When the NBD-cholesterol is esterified by ACAT, the ester of NBD-cholesterol locates itself in the nonpolar lipid droplets and is in that case strongly fluorescent.
The method below is applied: The HepG2 cells are incubated in the presence of NBD-cholesterol (1 μg/ml) and of the compound of formula (I) to be tested in black 96-well plates with a transparent base at a rate of 30 000 cells per well. After incubation for 6 h at 37° C., under 5% CO2, the medium is eliminated by turning over and the cells are washed with 2 times 100 μl of PBS. After addition of 50 μl of lysis buffer (NaPO4 10 mM, Igepal 1%), the plates are stirred for 5 min and read in fluorescence (excitation 490 nm, emission 540 nm) on a FUSION apparatus (Perkin-Elmer).
In the case of `CC(C)c1cccc(C(C)C)c1NC(=O)CN1CC2(CCCCC2)N(c2ccccc2)C1=O` [I.1, N-(2,6-Diisopropylphenyl)-2-(2-oxo-1-phenyl-1,3-diazaspiro[4.5]dec-3-yl)-acetamide], the half-inhibitory concentration (IC50) (as a rule, the point on the concentration scale where inhibition reaches its midpoint) was found to be 5.4 nM.
For `CCC1(CC)CN(CC(=O)Nc2c(C(C)C)cccc2C(C)C)C(=O)N1c1ccc(C)cc1` [I.13, 2-(4,4-Diethyl-2-oxo-3-p-tolylimidazolidin-1-yl)-N-(2,6-diisopropylphenyl)-acetamide], half-maximal inhibition (IC50) required 0.9 nM.
`CCc1ccc(N2C(=O)N(CC(=O)Nc3c(C(C)C)cccc3C(C)C)CC23CCCCC3)cc1` [I.9, N-(2,6-Diisopropylphenyl)-2-[1-(4-ethylphenyl)-2-oxo-1,3-diazaspiro-[4.5]dec-3-yl]acetamide] gave an IC50 of 7.1 nM.
For `Cc1ccc(N2C3(CCCCC3)CN(CC(=O)Nc3c(C(C)C)cccc3C(C)C)S2(=O)=O)cc1` [I.5, N-(2,6-Diisopropylphenyl)-2-(2,2-dioxo-1-p-tolyl-2lambda*6*-thia-1,3-di-azaspiro[4.5]dec-3-yl)acetamide], the midpoint of inhibition, the IC50, lay at 3.2 nM.

(Values after patent US8513307B2, “N-phenylacetamide inhibitors of the enzyme SOAT-1 and pharmaceutical/cosmetic compositions comprised thereof” (Galderma Research & Development, priority 2007, dated 2013).)
